What all share (test): biochemical
Assay type in all cases: biochemical
Holding throughout (settings): 15 nM tritium labelled cAMP, 1 hr at room temperature

Assay [1] deals with PDE1C (Homo sapiens (Human), UniProt Q14123). The source says:
(§1) Table 1 lists the IC50 value for inhibition of PDE1 by the compounds of the invention. […] PDE1 assays are described in the Experimental Section.

The target of assay [2] is PDE1B (Homo sapiens (Human), UniProt Q01064).
From the text: as §1

For assay [3], the target named is PDE1A (Homo sapiens (Human), UniProt P54750).
From the text: as §1

pIC50: −log10 of the molar value.

Chain of PDE1C (Q14123 whole entry): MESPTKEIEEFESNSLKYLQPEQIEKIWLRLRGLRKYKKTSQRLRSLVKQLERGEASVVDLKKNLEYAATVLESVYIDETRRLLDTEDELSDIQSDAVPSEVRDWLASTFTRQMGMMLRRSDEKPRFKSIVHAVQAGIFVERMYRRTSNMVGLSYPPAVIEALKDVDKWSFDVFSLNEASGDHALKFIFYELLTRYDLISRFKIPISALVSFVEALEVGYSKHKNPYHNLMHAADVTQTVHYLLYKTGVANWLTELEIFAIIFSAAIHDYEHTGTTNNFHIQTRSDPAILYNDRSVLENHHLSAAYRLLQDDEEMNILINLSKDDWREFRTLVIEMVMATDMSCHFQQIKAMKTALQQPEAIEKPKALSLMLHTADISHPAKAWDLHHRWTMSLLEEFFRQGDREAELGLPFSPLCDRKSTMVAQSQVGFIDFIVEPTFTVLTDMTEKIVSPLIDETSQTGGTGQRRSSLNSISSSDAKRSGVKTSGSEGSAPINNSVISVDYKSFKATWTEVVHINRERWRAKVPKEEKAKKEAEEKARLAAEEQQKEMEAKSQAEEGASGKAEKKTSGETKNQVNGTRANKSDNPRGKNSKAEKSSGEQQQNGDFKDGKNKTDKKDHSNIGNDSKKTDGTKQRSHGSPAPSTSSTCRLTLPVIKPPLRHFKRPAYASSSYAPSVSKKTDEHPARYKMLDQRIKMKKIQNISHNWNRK
Chain of PDE1A (P54750 whole entry): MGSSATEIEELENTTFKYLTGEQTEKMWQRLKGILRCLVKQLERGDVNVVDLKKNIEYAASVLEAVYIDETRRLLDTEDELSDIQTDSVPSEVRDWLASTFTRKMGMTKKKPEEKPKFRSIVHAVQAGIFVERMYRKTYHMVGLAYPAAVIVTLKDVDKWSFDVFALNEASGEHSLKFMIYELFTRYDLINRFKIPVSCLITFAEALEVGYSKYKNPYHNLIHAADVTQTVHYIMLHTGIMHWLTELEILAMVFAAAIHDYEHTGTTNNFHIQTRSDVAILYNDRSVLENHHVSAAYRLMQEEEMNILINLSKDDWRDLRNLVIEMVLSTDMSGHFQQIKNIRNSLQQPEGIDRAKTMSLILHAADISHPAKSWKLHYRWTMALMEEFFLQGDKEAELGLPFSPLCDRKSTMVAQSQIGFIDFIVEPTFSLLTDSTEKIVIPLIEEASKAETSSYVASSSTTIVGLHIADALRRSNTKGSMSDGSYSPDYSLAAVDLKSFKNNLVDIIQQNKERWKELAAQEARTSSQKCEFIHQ
Chain of PDE1B (Q01064 whole entry): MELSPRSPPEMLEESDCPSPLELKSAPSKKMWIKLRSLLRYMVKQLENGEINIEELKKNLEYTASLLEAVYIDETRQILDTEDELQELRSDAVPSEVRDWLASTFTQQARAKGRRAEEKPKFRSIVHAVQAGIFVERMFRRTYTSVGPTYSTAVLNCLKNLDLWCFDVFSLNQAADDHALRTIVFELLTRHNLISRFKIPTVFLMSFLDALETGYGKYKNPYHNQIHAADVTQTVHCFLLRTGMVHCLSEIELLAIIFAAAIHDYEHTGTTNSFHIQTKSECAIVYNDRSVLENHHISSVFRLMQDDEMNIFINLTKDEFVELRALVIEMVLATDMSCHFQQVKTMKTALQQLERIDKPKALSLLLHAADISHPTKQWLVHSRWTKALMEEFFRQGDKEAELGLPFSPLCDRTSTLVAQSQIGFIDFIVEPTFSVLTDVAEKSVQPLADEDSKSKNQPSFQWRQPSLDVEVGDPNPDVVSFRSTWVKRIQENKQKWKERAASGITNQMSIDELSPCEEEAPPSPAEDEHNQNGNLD

One may read the pIC50 as −log10 of the IC50, conventionally taken in molar units. On to `CCCOc1cnccc1-c1cc(NCc2cnn(C)c2)c2c(n1)c(C)nn2C(C)C` [Example 31b, 1-isopropyl-3-methyl-N-[(1-methylpyrazol-4-yl)methyl]-5-(3-propoxy-4-pyridyl)pyrazolo[4,3-b]pyridin-7-amine], for which the figures for the pIC50 in assay [1], in assay [2] and in assay [3] were 7.74, 9.42 and 8.34, respectively.

As to `Cc1nc2cccc(-c3cc(NCc4cnn(C)c4)c4c(n3)c(C)nn4C(C)C)c2o1` [Example 36b, 1-isopropyl-3-methyl-5-(2-methyl-1,3-benzoxazol-7-yl)-N-[(1-methylpyrazol-4-yl)methyl]pyrazolo[4,3-b]pyridin-7-amine], the results for the pIC50 in assay [1], in assay [2] and in assay [3] were 7.55, 8.62 and 7.85, respectively.

`CCOc1cnccc1-c1cc(NCc2cccc(F)n2)c2c(n1)c(C)nn2C(C)C` [Example 12b, 5-(3-ethoxy-4-pyridyl)-N-[(6-fluoro-2-pyridyl)methyl]-1-isopropyl-3-methyl-pyrazolo[4,3-b]pyridin-7-amine]: the results for the pIC50 in assay [1], in assay [2] and in assay [3] were 7.21, 8.96 and 7.66, respectively.

For the molecule `CCOc1nnccc1-c1cc(NCc2ncccn2)c2c(n1)c(C)nn2C(C)C` [Example 1b, 5-(3-ethoxypyridazin-4-yl)-1-isopropyl-3-methyl-N-(pyrimidin-2-ylmethyl)pyrazolo[4,3-b]pyridin-7-amine], the pIC50 in assay [1] is 7.32; in assay [2], 8.89; in assay [3] it was 7.96.

With `CCOc1nnccc1-c1cc(NCc2ccn(C)n2)c2c(n1)c(C)nn2C(C)C` [Example 9b, 5-(3-ethoxypyridazin-4-yl)-1-isopropyl-3-methyl-N-[(1-methylpyrazol-3-yl)methyl]pyrazolo[4,3-b]pyridin-7-amine], the negative-log IC50 (pIC50) is 7.66 in assay [1], 9.22 in assay [2] and 8.28 in assay [3].

Turning to `CCOc1ncccc1-c1cc(NCc2cccn3nccc23)c2c(n1)c(C)nn2C(C)C` [Example 5a, 5-(2-ethoxy-3-pyridyl)-1-isopropyl-3-methyl-N-(pyrazolo[1,5-a]pyridin-4-ylmethyl)pyrazolo[4,3-b]pyridin-7-amine], the results for the pIC50 in assay [1], in assay [2] and in assay [3] were 7.02, 8.15 and 7.28, respectively.

For `CCOc1ncccc1-c1cc(NCc2cccn3ccnc23)c2c(n1)c(C)nn2C(C)C` [Example 4a, 5-(2-ethoxy-3-pyridyl)-N-(imidazo[1,2-a]pyridin-8-ylmethyl)-1-isopropyl-3-methyl-pyrazolo[4,3-b]pyridin-7-amine], the values for the pIC50 in assay [1], in assay [2] and in assay [3] were 7.66, 9.32 and 8.18, respectively.

Consider `CCOc1nnccc1-c1cc(NCc2cnc(C)s2)c2c(n1)c(C)nn2C(C)C` [Example 20b, 5-(3-ethoxypyridazin-4-yl)-1-isopropyl-3-methyl-N-[(2-methylthiazol-5-yl)methyl]pyrazolo[4,3-b]pyridin-7-amine], for which the pIC50 in assay [1] is 7.62; in assay [2], 8.96; in assay [3], 8.24.

As to `CCOc1ncccc1-c1cc(NCc2cccn3cncc23)c2c(n1)c(C)nn2C(C)C` [Example 8a, 5-(2-ethoxy-3-pyridyl)-N-(imidazo[1,5-a]pyridin-8-ylmethyl)-1-isopropyl-3-methyl-pyrazolo[4,3-b]pyridin-7-amine], the negative logarithm of the IC50 (pIC50) was 8.04 in assay [1], 9.74 in assay [2] and 8.49 in assay [3].

As to `CCOc1cnccc1-c1cc(NCc2cnc(C)s2)c2c(n1)c(C)nn2C(C)C` [Example 21b, 5-(3-ethoxy-4-pyridyl)-1-isopropyl-3-methyl-N-[(2-methylthiazol-5-yl)methyl]pyrazolo[4,3-b]pyridin-7-amine], the pIC50 in assay [1] was 7.85; in assay [2], 9.19; in assay [3], 8.25.

On to `CCOc1nnccc1-c1cc(NCc2cnn(C)c2)c2c(n1)c(C)nn2C(C)CC` (single isomer, unassigned) [Example 6b, 5-(3-ethoxypyridazin-4-yl)-3-methyl-N-[(1-methylpyrazol-4-yl)methyl]-1-[1-methylpropyl]pyrazolo[4,3-b]pyridin-7-amine], for which the values for the pIC50 in assay [1], in assay [2] and in assay [3] were 7.96, 9.44 and 8.72, respectively.

For `COc1nnccc1-c1cc(NCc2cnn(C)c2)c2c(n1)c(C)nn2C(C)C` [Example 2b, 1-isopropyl-5-(3-methoxypyridazin-4-yl)-3-methyl-N-[(1-methylpyrazol-4-yl)methyl]pyrazolo[4,3-b]pyridin-7-amine], the pIC50 was 7.31 in assay [1], 8.09 in assay [2] and 7.35 in assay [3].

With `CCOc1cnccc1-c1cc(NCc2cccnc2OC)c2c(n1)c(C)nn2C(C)C` [Example 30b, 5-(3-ethoxy-4-pyridyl)-1-isopropyl-N-[(2-methoxy-3-pyridyl)methyl]-3-methyl-pyrazolo[4,3-b]pyridin-7-amine], the figures for the pIC50 in assay [1], in assay [2] and in assay [3] were 7.19, 8.57 and 7.57, respectively.

In the case of `CCCOc1nnccc1-c1cc(NCc2cnn(C)c2)c2c(n1)c(C)nn2C(C)C` [Example 4b, 1-isopropyl-3-methyl-N-[(1-methylpyrazol-4-yl)methyl]-5-(3-propoxypyridazin-4-yl)pyrazolo[4,3-b]pyridin-7-amine], the pIC50 was 7.74 in assay [1], 9.46 in assay [2] and 8.49 in assay [3].

Regarding `CCOc1cnccc1-c1cc(NCc2cccnc2F)c2c(n1)c(C)nn2C(C)C` [Example 17b, 5-(3-ethoxy-4-pyridyl)-N-[(2-fluoro-3-pyridyl)methyl]-1-isopropyl-3-methyl-pyrazolo[4,3-b]pyridin-7-amine], the pIC50 in assay [1] is 7.43; in assay [2], 8.62; in assay [3], 7.70.

Regarding `CCOc1ncccc1-c1cc(NCc2cccc3nc(C)nn23)c2c(n1)c(C)nn2C(C)C` [Example 7a, 5-(2-ethoxy-3-pyridyl)-1-isopropyl-3-methyl-N-[(2-methyl-[1,2,4]triazolo[1,5-a]pyridin-5-yl)methyl]pyrazolo[4,3-b]pyridin-7-amine], the pIC50 is 7.46 in assay [1], 9.03 in assay [2] and 7.96 in assay [3].

With `CCOc1nnccc1-c1cc(NCc2cnn(C)c2)c2c(n1)c(C)nn2C(C)CC` (single isomer, unassigned) [Example 5b, 5-(3-ethoxypyridazin-4-yl)-3-methyl-N-[(1-methylpyrazol-4-yl)methyl]-1-[1-methylpropyl]pyrazolo[4,3-b]pyridin-7-amine], the negative-log IC50 (pIC50) is 6.99 in assay [1], 8.21 in assay [2] and 7.60 in assay [3].

With `CCOc1nnccc1-c1cc(NCc2nccc(C)n2)c2c(n1)c(C)nn2C(C)C` [Example 11b, 5-(3-ethoxypyridazin-4-yl)-1-isopropyl-3-methyl-N-[(4-methylpyrimidin-2-yl)methyl]pyrazolo[4,3-b]pyridin-7-amine], the pIC50 was 6.80 in assay [1], 8.36 in assay [2] and 7.42 in assay [3].

`CCOc1nnccc1-c1cc(NCc2nnc(C)o2)c2c(n1)c(C)nn2C(C)C` [Example 8b, 5-(3-ethoxypyridazin-4-yl)-1-isopropyl-3-methyl-N-[(5-methyl-1,3,4-oxadiazol-2-yl)methyl]pyrazolo[4,3-b]pyridin-7-amine]: the pIC50 is 6.49 in assay [1], 7.85 in assay [2] and 7.01 in assay [3].

Turning to `CCOc1cnccc1-c1cc(NCc2cc[nH]n2)c2c(n1)c(C)nn2C(C)C` [Example 13b, 5-(3-ethoxy-4-pyridyl)-1-isopropyl-3-methyl-N-(1H-pyrazol-3-ylmethyl)pyrazolo[4,3-b]pyridin-7-amine], the negative-log IC50 (pIC50) is 7.25 in assay [1], 8.60 in assay [2] and 7.62 in assay [3].

`CCOc1nnccc1-c1cc(NCc2ncn(C)n2)c2c(n1)c(C)nn2C(C)C` [Example 18b, 5-(3-ethoxypyridazin-4-yl)-1-isopropyl-3-methyl-N-[(1-methyl-1,2,4-triazol-3-yl)methyl]pyrazolo[4,3-b]pyridin-7-amine]: the values for the pIC50 in assay [1], in assay [2] and in assay [3] were 7.77, 9.23 and 8.44, respectively.

Turning to `CCOc1cnccc1-c1cc(NCc2cnn(C)c2)c2c(n1)c(C)nn2C(C)CC` (single isomer, unassigned) [Example 32b, 5-(3-ethoxy-4-pyridyl)-3-methyl-N-[(1-methylpyrazol-4-yl)methyl]-1-[1-methylpropyl]pyrazolo[4,3-b]pyridin-7-amine], the pIC50 is 6.74 in assay [1], 8.11 in assay [2] and 7.24 in assay [3].

On to `CCOc1cnccc1-c1cc(NCc2ccccn2)c2c(n1)c(C)nn2C(C)C` [Example 15b, 5-(3-ethoxy-4-pyridyl)-1-isopropyl-3-methyl-N-(2-pyridylmethyl)pyrazolo[4,3-b]pyridin-7-amine], for which the pIC50 in assay [1] is 7.26; in assay [2], 8.85; in assay [3] it was 7.77.

Turning to `CCOc1nnccc1-c1cc(NCc2cccnc2F)c2c(n1)c(C)nn2C(C)C` [Example 16b, 5-(3-ethoxypyridazin-4-yl)-N-[(2-fluoro-3-pyridyl)methyl]-1-isopropyl-3-methyl-pyrazolo[4,3-b]pyridin-7-amine], the pIC50 was 7.30 in assay [1], 8.47 in assay [2] and 7.74 in assay [3].

As for `CCOc1ncccc1-c1cc(NCc2ccc3oc(C)nc3c2)c2c(n1)c(C)nn2C(C)C` [Example 12a, 5-(2-ethoxy-3-pyridyl)-1-isopropyl-3-methyl-N-[(2-methyl-1,3-benzoxazol-5-yl)methyl]pyrazolo[4,3-b]pyridin-7-amine], the pIC50 in assay [1] was 7.51; in assay [2], 9.09; in assay [3] it was 8.06.

Take `CCOc1ncccc1-c1cc(NCc2cccc3ncoc23)c2c(n1)c(C)nn2C(C)C` [Example 9a, N-(1,3-benzoxazol-7-ylmethyl)-5-(2-ethoxy-3-pyridyl)-1-isopropyl-3-methyl-pyrazolo[4,3-b]pyridin-7-amine]: the pIC50 was 7.09 in assay [1], 8.28 in assay [2] and 7.35 in assay [3].
